Laboratory results reported in the OPERA property sets (Mansouri et al. 2018).

SMILES | melting point [°C] | boiling point [°C] | log10 vapour pressure (mmHg) | log10 Koc (L/kg) | ready biodegradability | log10 Henry constant (atm·m³/mol)
O=C(O)c1ccccc1Br | 150 |  |  |  |  | 
CCC(Cl)CC | -105 | 97.5 | 1.67 |  |  | 
CCCN(CCOc1c(Cl)cc(Cl)cc1Cl)C(=O)n1ccnc1 | 48 |  | -5.95 | 2.7 |  | 
ClCCOC(c1ccccc1)c1ccccc1 |  |  |  |  | not readily biodegradable | 
Fc1cccc(F)c1-c1nnc(-c2ccccc2Cl)nn1 | 188 |  |  |  |  | 
O=C(O)Cc1cccc(O)c1 | 132 |  |  |  |  | 
C[Se]C |  | 55 | 2.38 |  |  | -2.76
C=CCCCCCCC=C |  | 167 |  |  |  | 
O=[N+]([O-])c1ccc(O)cc1 | 114 | 279 | -4.01 | 2.37 | not readily biodegradable | -9.38
CN1c2ccccc2Sc2ccc(CC(=O)O)cc21 | 144 |  |  |  |  | 
COCC(C)OCC(C)OCC(C)O (stereo not given) |  | 250 | -1.7 |  |  | 
C=C(C)c1ccc(C(=C)C)cc1 | 63.5 |  |  |  |  | 
O=C1NC(=O)C(c2ccccc2)(c2ccccc2)N1 | 296 |  |  |  | not readily biodegradable | 
CC(C)c1cc(C(C)C)c(C(C)C)cc1C(C)C | 118 | 259 | -2.7 |  |  | 
c1cc2c3c(ccc4c3c1CCC4)CCC2 | 133 |  |  |  |  | 
Brc1c(Br)c(Br)c2c(c1Br)Oc1c(Br)c(Br)c(Br)c(Br)c1O2 | 376 |  | -12.5 |  |  | 
CCOc1cccc2ccccc12 | 5.5 | 280 |  |  |  | 
CNc1ccc(C(=O)O)cc1 |  |  |  |  | not readily biodegradable | 
BrCC1CO1 (stereo not given) | -40 | 135 |  |  |  | 

SMILES | melting point [°C] | boiling point [°C] | log10 vapour pressure (mmHg) | log10 Koc (L/kg) | ready biodegradability | log10 Henry constant (atm·m³/mol)
C=Cc1ccc(C(C)C)cc1 | -44.7 | 204 |  |  |  | 
CNc1ccccc1C(=O)OC | 19 | 255 |  |  |  | 
CC12CCC(C1)C(C)(C)C2=O (stereo not given) | 5.37 |  | -0.0876 |  |  | 
CCCCSSCCCC |  |  | -1.2 |  |  | 
Nc1c(C(=O)O)ccc2c1C(=O)c1ccccc1C2=O | 296 |  |  |  |  | 
CCCCOCN(C(=O)CCl)c1c(CC)cccc1CC | -2.8 |  | -5.54 | 2.86 |  | -7.29
O=C1c2ccccc2C(=O)c2c1cccc2[N+](=O)[O-] | 232 |  | -8.4 |  |  | 
CC1=C(/C=C/C(C)=C/C=C/C(C)=C/C=C/C=C(C)/C=C/C=C(C)/C=C/C2=C(C)C[C@@H](O)CC2(C)C)C(C)(C)C[C@H](O)C1 | 216 |  |  |  |  | 
C#CCCl |  | 58 |  |  |  | 
COCC(=O)N(c1c(C)cccc1C)N1CCOC1=O | 104 |  | -7.61 |  |  | 
N#CCCCCCCCCCCC(=O)O |  |  |  |  | readily biodegradable | 
O=C(CO)[C@@H](O[C@H]1O[C@H](CO)[C@@H](O)[C@H](O)[C@H]1O)[C@H](O)[C@H](O)CO | 168 |  |  |  |  | 
CC[C@H]1C[C@@H]2C[C@H]3c4[nH]c5cc(OC)ccc5c4CC[N@@](C2)[C@@H]13 | 214 |  |  |  |  | 
C[N+]1([O-])[C@@H]2C[C@@H](OC(=O)[C@H](CO)c3ccccc3)C[C@H]1[C@@H]1O[C@@H]12 (stereo not given in full) | 80 |  |  |  |  | 
CC(Oc1cc(Cl)c(Cl)cc1Cl)C(=O)O (stereo not given) | 182 |  |  | 1.75 | not readily biodegradable | 
Cc1ccc(O)c(C(=O)O)c1 | 151 |  |  |  |  | 
COC(=O)CCCCCCCCC(=O)OC | 38 |  |  |  |  | 
CN(C)c1cccc(C(=O)O)c1 |  |  |  |  | not readily biodegradable | 
C=CCCCl |  | 75 |  |  |  | 

SMILES | melting point [°C] | boiling point [°C] | log10 vapour pressure (mmHg) | log10 Koc (L/kg) | ready biodegradability | log10 Henry constant (atm·m³/mol)
CCn1c(C)nc2ccccc21 | 51 | 296 |  |  |  | 
CCOc1ccccc1C |  | 184 |  |  |  | 
CCC(C(C)C)C(C)C | -122 | 137 | 1 |  |  | 
CCCC=CCCCCC |  | 171 |  |  |  | 
CC1(C)C(=O)NC(=O)N1CO | 100 |  |  |  |  | 
C[Si](C)(C)CCl |  | 98.5 |  |  |  | 
CN(C)CC/C=C1\c2ccccc2Sc2ccc(Cl)cc21 | 97.5 |  |  |  |  | 
CCN(CC)C(=O)c1ccccc1C(=O)N(CC)CC | 36 |  |  |  |  | 
O=C(O)[C@@H](O)[C@H](O)[C@H](O)[C@@H](O)C(=O)O | 126 |  |  |  |  | 
N#CC(CCN1CCC(C(N)=O)(N2CCCCC2)CC1)(c1ccccc1)c1ccccc1 | 150 |  |  |  |  | 
CCCC(C)(C)O | -103 | 121 | 0.934 |  |  | 
c1ccc2c(c1)ccc1c2ccc2c3ccccc3ccc21 | 368 | 519 |  |  |  | 
Cn1c(=O)c2c(ncn2CCO)n(C)c1=O | 158 |  |  |  |  | 
CCC(C)(O)C(C)C (stereo not given) |  | 140 |  |  |  | 
Oc1ccc(Br)cc1Cl | 50.5 | 234 |  |  |  | 
O=C(c1ccc(O)cc1)c1ccc(O)c(O)c1O |  |  |  |  | not readily biodegradable | 
CCCCCCCC(C)CC (stereo not given) | -92.9 | 188 |  |  |  | 
CCN(CC)C(=O)Cl | -32 | 186 |  |  |  | 
C#CCOc1cc(-n2nc(C(C)(C)C)oc2=O)c(Cl)cc1Cl | 131 |  | -7.73 |  |  | 
